# Data: PMC6675120, “Potent and selective inhibitors for M32 metallocarboxypeptidases identified from high-throughput screening of anti-kinetoplastid chemical boxes” (PLoS Neglected Tropical Diseases, 2019)
# Legend:
# TbMCP-1 = TbMCP-1 (Trypanosoma brucei, UniProt Q386R0); experiment: Continuous fluorogenic (FRET) TbMCP-1 assay with Abz-RFFK(Dnp)-OH, primary and secondary screening; format: biochemical; conditions: for TbMCP-1 2º/1º ratio: secondary (31,5 µM) / primary (25 µM) inhibition; for TbMCP-1 Primary screening Inhibition (%): single inhibitor concentration 25 µM; for TbMCP-1 Secondary screening Inhibition (%): single inhibitor concentration 31,5 µM; for TbMCP-1 Hill Slope: four-parameter Hill fit of dose-response curve
# Chain of TbMCP-1 (Q386R0 entry or part of it): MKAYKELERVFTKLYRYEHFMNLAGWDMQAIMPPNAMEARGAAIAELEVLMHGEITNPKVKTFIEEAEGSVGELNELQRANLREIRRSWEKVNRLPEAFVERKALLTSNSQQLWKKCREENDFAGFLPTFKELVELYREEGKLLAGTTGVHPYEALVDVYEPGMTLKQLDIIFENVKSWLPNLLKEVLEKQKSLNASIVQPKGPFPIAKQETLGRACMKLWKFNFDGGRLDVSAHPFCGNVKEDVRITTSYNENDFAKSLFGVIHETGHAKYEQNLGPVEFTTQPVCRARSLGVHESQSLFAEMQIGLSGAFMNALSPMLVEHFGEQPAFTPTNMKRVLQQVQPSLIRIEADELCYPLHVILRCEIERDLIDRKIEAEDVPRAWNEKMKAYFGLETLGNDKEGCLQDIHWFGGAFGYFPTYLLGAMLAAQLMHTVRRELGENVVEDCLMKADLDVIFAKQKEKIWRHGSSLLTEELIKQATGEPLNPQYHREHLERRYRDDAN
# Protocol: (§1) TcMCP-1 (MEROPS ID: M32.003) and TbMCP-1 were expressed as GST fusion proteins in E. coli BL21 (DE3) Codon Plus and purified as previously described.
# (§2) TbMCP-1 and TcMCP-1 activities were assayed fluorometrically with Abz-RFFK(Dnp)-OH and Abz-LKFK(Dnp)-OH substrates, respectively, in 100 mM MOPS pH 7,2 containing 0,01% Triton X-100. Assays were performed in solid black 384-well plates (final reaction volume ~80 μL) and the hydrolysis of the K(Dnp)-OH group was monitored continuously at 30 °C with a Beckman Coulter DTX 880 Multimode Reader (Radnor, Pennsylvania, USA) using standard 320 nm excitation and 420 nm emission filter set.
# (§3) In all cases, EDTA (final concentration 31,25 mM) was used as positive inhibition control.
# (§4) Then, 40 μL of 100 mM MOPS, 0,01% Triton X-100 pH 7,2 containing TbMCP-1 (2,50 nM) or TcMCP-1 (0,34 nM) were added to each well, plates were homogenized (30 seg, orbital, medium intensity) and each well subjected to a single autofluorescence read (ex/em = 320/420 nm). Plates were incubated in darkness for 15 min at 30 °C and then 40 μL of Abz-RFFK(Dnp)-OH (4 μM) or Abz-LKFK(Dnp)-OH (0,8 μM) in assay buffer were added to each well to start the reaction. After homogenization (30 seg, orbital, medium intensity), the fluorescence of the Abz group (ortho-aminobenzoic acid) (ex/em = 320/420 nm) was acquired kinetically for each well (8 read cycles, one cycle every 300 seconds). Considering our previous experiences, the auto-fluorescent cut-off was arbitrarily set at 2x10^5 RFU to discard highly interfering compounds. All compounds were assayed in singlet (without replicates) due to the limited availability of stocks.
# (§5) Raw screening measurements were used to determine the slope (dF/dt) of progression curves by linear regression for control and non-interfering compound wells. In the case of control-dependent hit selection criteria, percent inhibition percentage (%Inh) was calculated for each compound according to the following equation: Inh=100∙[1−(dF/dt^WELL−μ^C−)/(μ^C+−μ^C−)] (1) where dF/dt^WELL represents the slope of each compound well and μ^C+ and μ^C− the average of MCP (no-inhibition) and substrate (no-enzyme) controls, respectively.
# (§6) To avoid any positional and/or association bias, we randomly defined the row position for each compound. One μL of compounds stock (10 mM in DMSO) and EDTA (31,25 mM) were added to the first well of column 1, followed by addition of 40 μL of 100 mM MOPS, 0,01% Triton X-100 pH 7,2 buffer. After addition of 20 μL of the same buffer to subsequent wells of the plate, 22 serial 2-fold dilutions were made horizontally. The last two positions of every row were used, alternatively, for C^+ and C^− controls to reduce any positional and/or association bias. Then, 20 μL of activity buffer containing TbMCP-1 or TcMCP-1 were added to each well, except for those corresponding to C^−; completed with 20 μL of activity buffer. After homogenization, 15 minutes of incubation at 30°C and autofluorescence measurement, the substrate (in activity buffer) was added to the previous mix. Data collection and processing were performed exactly as described above. Percentage of M32 MCPs residual activity was calculated for each condition according to the following equation: %Res.Act^MCP=100∙[(dF/dt^WELL−μ^C−)/(μ^C+−μ^C−)] (2) where dF/dt^WELL represents the slope of each compound well and μ^C+ and μ^C− the average of MCP (no-inhibition) and substrate (no-enzyme) controls, respectively.
# TcMCP-1 = TcMCP-1 (Trypanosoma cruzi, UniProt Q6ZXC0); experiment: Continuous fluorogenic (FRET) TcMCP-1 assay with Abz-LKFK(Dnp)-OH, primary and secondary screening; format: biochemical; conditions: for TcMCP-1 Hill Slope: four-parameter Hill fit of dose-response curve; for TcMCP-1 2º/1º ratio: secondary (31,5 µM) / primary (25 µM) inhibition; for TcMCP-1 Primary screening Inhibition (%): single inhibitor concentration 25 µM; for TcMCP-1 Secondary screening Inhibition (%): single inhibitor concentration 31,5 µM
# Chain of TcMCP-1 (Q6ZXC0 entry or part of it): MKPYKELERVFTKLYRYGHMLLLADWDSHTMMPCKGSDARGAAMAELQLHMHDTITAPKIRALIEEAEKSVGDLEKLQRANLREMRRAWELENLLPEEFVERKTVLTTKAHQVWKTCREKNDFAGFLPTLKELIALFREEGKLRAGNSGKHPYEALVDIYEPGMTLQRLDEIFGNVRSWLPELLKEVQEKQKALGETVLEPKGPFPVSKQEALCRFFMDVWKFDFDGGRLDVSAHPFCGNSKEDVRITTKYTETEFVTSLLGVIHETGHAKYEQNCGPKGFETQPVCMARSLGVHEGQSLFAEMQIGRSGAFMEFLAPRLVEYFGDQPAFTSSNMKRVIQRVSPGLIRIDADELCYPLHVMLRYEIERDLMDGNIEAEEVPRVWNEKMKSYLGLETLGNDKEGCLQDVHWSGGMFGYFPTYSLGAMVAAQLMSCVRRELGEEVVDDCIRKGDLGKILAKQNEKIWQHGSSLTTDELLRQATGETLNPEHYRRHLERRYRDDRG
# Protocol: as §1, §2, §3, §4, §5
# as §6, with “Compounds selected from primary screening were re-tested in a dose-response manner (final concentration ranging from […] to 62,5 μM) using identical assay conditions. To” for “To”
SMILES,TbMCP-1 2º/1º ratio (TbMCP-1),TbMCP-1 Primary screening Inhibition (%) (TbMCP-1),TbMCP-1 Secondary screening Inhibition (%) (TbMCP-1),IC50 (TcMCP-1),TcMCP-1 Hill Slope (TcMCP-1),TcMCP-1 2º/1º ratio (TcMCP-1),TcMCP-1 Primary screening Inhibition (%) (TcMCP-1),TcMCP-1 Secondary screening Inhibition (%) (TcMCP-1),IC50 (TbMCP-1),TbMCP-1 Hill Slope (TbMCP-1)
O=C(NCC1CCCCC1)c1cc(=O)c2ccccc2o1 [TCMDC-123621],"-0,05","44,99%","-2,11%",–,–,–,–,–,–,–
CC(C)N(C(=O)CN1C(=O)C(N)C(=O)N(c2ccccc2)c2ccccc21)c1ccccc1 (stereo not shown) [TCMDC-143071],–,–,–,38.9 µM,"-1,235","0,63","45,44%","28,65%",–,–
COc1cccc(-c2cc(C(F)(F)F)nc(-n3ccc([N+](=O)[O-])n3)n2)c1 [TCMDC-143105],–,–,–,–,–,"0,34","52,36%","17,76%",–,–
N#Cc1cc([N+](=O)[O-])ccc1NC1CCCCCC1 [TCMDC-143143],"1,61","41,27%","66,27%",–,–,–,–,–,21.8 µM,"-1,466"
Cc1c([N+](=O)[O-])c(C(=O)Nc2sc3c(c2C#N)CCC(C)C3)nn1C (stereo not shown) [TCMDC-143155],"0,23","44,57%","10,36%",–,–,–,–,–,–,–
Cl.Cl.O=c1ccc2ccc(F)c3c2n1C[C@H]3CN1CCN(CC(O)c2cc3c(cn2)OCS3)CC1 (stereo partly shown) [TCMDC-143158],"1,19","44,84%","53,51%",–,–,–,–,–,27.6 µM,"-1,014"
O=C(c1cc2cc(Cl)ccc2[nH]1)N1CCCCC1c1cccnc1 (stereo not shown) [TCMDC-143159],"0,25","52,96%","13,07%",–,–,–,–,–,–,–
CC1=C(C(=O)Nc2ccc(Cl)cc2)C(c2ccncc2)n2ncc(C(=O)Nc3ccccc3)c2N1 (stereo not shown) [TCMDC-143187],"0,50","48,70%","24,44%",–,–,–,–,–,> 60 µM,–
Cc1ccc2c(c1)-c1onc(C(=O)N3CCCCC3c3cccnc3)c1CO2 (stereo not shown) [TCMDC-143191],"0,78","88,97%","69,40%",–,–,–,–,–,16.1 µM,"-1,267"
Cn1ccnc1CN1CCc2[nH]cnc2C1c1ccccc1OCc1ccccc1 (stereo not shown) [TCMDC-143242],–,–,–,26.5 µM,"-1,237","1,02","51,89%","52,68%",–,–
O=C(N[C@H](CO)c1ccccc1)c1ccc(-c2c[nH]c3nccc(C(F)(F)F)c23)s1 [TCMDC-143254],"0,78","45,94%","35,87%",–,–,–,–,–,43.4 µM,"-0,8163"
O=C(NNC(=O)c1ccccn1)c1ccc(-c2ccccc2)cc1 [TCMDC-143263],–,–,–,40.7 µM,"-0,9946","0,31","48,44%","14,84%",–,–
CN(C)S(=O)(=O)c1ccc(Cl)c(C(=O)Nc2nc(-c3ccccn3)cs2)c1 [TCMDC-143265],"0,40","59,46%","23,62%",–,–,–,–,–,44.2 µM,"-2,036"
CCC1Oc2cc(S(=O)(=O)N(C)CC(=O)N3CCc4ccccc4C3)c(C)cc2NC1=O (stereo not shown) [TCMDC-143332],"1,03","55,90%","57,63%",–,–,–,–,–,23.3 µM,"-1,063"
CC(=O)Nc1cccc(Nc2ncnc3nc[nH]c23)c1 [TCMDC-143399],"0,19","43,27%","8,15%",–,–,–,–,–,–,–
CN(C)c1ccc(-c2cc3nccnc3c(OC[C@H]3CCCNC3)n2)cn1.Cl [TCMDC-143408],–,–,–,32.9 µM,"-1,153","1,06","46,88%","49,75%",–,–
CC(C)Oc1cccc(N2CCC(C(=O)N3CCCN(C(C)C)CC3)CC2)c1.Cl [TCMDC-143432],–,–,–,26.3 µM,"-0,6129","1,27","42,37%","53,96%",–,–
Cc1c(Nc2cc(C3CC3)n[nH]2)ccc(C#N)c1Cl.O=C(O)C(F)(F)F [TCMDC-143454],"0,63","52,66%","33,23%",–,–,–,–,–,> 60 µM,–
CC(Cn1ccnc1)NC(=O)COc1ccc(Cl)c(Cl)c1 (stereo not shown) [TCMDC-143479],–,–,–,–,–,"0,31","42,39%","13,15%",–,–
COc1ccc(S(=O)(=O)Nc2ccc(CN3CCN(C(=O)c4cccc(C#N)c4)CC3)cc2)cc1.O=C(O)C(F)(F)F [TCMDC-143496],–,–,–,34.9 µM,"-0,822","1,09","41,52%","45,37%",–,–
Cc1cc(C#N)c([N+](=O)[O-])cc1Br [TCMDC-143541],"0,20","44,26%","8,89%",–,–,–,–,–,–,–
O=C(O)C(F)(F)F.O=C(O)C(F)(F)F.O=C1COC(c2ccccc2)(c2ccccc2)CN1C1CCN(Cc2ccc(-n3ccnc3)cc2)CC1 [TCMDC-143543],–,–,–,> 60 µM,–,"0,72","43,40%","31,11%",–,–
COc1cccc(S(=O)(=O)Nc2ccc3c(c2)CC(N2CCC(NC(=O)C4CC4)CC2)C3)c1 (stereo not shown) [TCMDC-143583],–,–,–,–,–,"-0,15","77,30%","-11,25%",–,–
CC(C)Oc1ccc(C(=O)Nc2ccc(N3CCOCC3)c(Cl)c2)cc1 [TCMDC-143592],–,–,–,27.9 µM,"-0,8919","1,03","56,55%","58,11%",–,–
Cl.Cl.O=c1cc(NCCCNCc2cc(C(F)(F)F)cs2)[nH]c2ccccc12 [TCMDC-143645],"1,27","42,78%","54,13%",–,–,–,–,–,20.8 µM,"-1,127"
